Biological target: GLP-1R (Homo sapiens, UniProt P43220)
Assay: GLP-1R agonist cAMP stimulation assay (HTRF cAMP)
Format: cell-based
Conditions: HEK293 cell line expressing GLP-1 target; HTRF cAMP agonist mode, 30 min at RT
Outline: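 GLP-1R-expressing cells were stimulated with 10-point, 3-fold compound dilutions for 30 min at RT; HTRF cAMP detection reagents were then added for 60 min and the 665/615 ratio read. Ratios were converted to cAMP via a standard curve and % activity scaled between DMSO and top-concentration GLP-1(7-37) reference wells.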

Chain of GLP-1R (P43220 24-463): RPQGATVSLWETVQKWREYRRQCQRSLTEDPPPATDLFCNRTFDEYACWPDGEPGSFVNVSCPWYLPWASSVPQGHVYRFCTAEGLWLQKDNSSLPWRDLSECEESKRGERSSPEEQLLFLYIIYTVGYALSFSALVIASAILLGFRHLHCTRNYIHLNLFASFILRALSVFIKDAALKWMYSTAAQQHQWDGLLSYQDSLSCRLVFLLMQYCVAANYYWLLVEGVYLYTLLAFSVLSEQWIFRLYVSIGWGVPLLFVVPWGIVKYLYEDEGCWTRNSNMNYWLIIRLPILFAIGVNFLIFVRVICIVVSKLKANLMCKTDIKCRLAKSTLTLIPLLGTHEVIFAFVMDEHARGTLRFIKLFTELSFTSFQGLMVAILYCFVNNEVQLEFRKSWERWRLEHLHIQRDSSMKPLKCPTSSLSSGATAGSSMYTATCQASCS

Row | SMILES | EC50
1 | C[C@H](NC(=O)c1ccc2c(c1)nc(CN1CCC(c3cccc(OCc4ccc(Cl)cc4F)n3)CC1)n2C[C@@H]1CCO1)C(=O)N1C[C@H](O)C[C@H]1C(=O)O [Compound 57] | 1.41 nM
2 | O=C(Nc1ccc2c(c1)nc(CN1CC=C(c3cccc(OCc4ccc(Cl)cc4F)n3)CC1)n2C[C@@H]1CCO1)c1ccc2[nH]nc(F)c2c1 [Compound 202] | 2.21 nM
3 | NC(=O)C[C@H](NC(=O)c1ccc2c(c1)nc(CN1CCC(c3cccc(OCc4ccc(Cl)cc4F)n3)CC1)n2CC1CCO1)C(=O)O (some centres unmarked) [Compound 52] | 12.8 nM
4 | N#Cc1ccc(COc2cccc(C3=CCN(Cc4nc5cc(C(=O)Nc6cc(F)c7c(c6)C6(CC6)C(=O)N7)ccc5n4C[C@@H]4CCO4)CC3)n2)c(F)c1 [Compound 179] | 0.76 nM
5 | COCCn1c(CN2CCC(c3cccc(OCc4ccc(Cl)cc4F)n3)CC2)nc2cc(C(=O)NCc3ccc(O)c(C(=O)OC)c3)ccc21 [Compound 36] | > 10000 nM
6 | Fc1cc(Cl)ccc1COc1cccc(C2=CCN(Cc3nc4ccc(CNc5cc(F)c6[nH]ncc6c5)cc4n3C[C@@H]3CCO3)CC2)n1 [Compound 268] | 3.64 nM
7 | Cc1cc(C(=O)Nc2ccc3c(c2)nc(CN2CC=C(c4cccc(OCc5ccc(C#N)cc5F)n4)CC2)n3C[C@@H]2CCO2)cc2cn[nH]c12 [Compound 236] | 1.04 nM
8 | Cc1cc(C(=O)Nc2ccc3nc(CN4CC=C(c5cccc(OCc6ccc(Cl)cc6F)n5)CC4)n(C[C@@H]4CCO4)c3c2)cc2c1NC(=O)C21CC1 [Compound 282] | 4.32 nM
9 | Cc1n[nH]c2c(F)cc(C(=O)Nc3ccc4c(c3)nc(C(F)(F)N3CC=C(c5cccc(OCc6ccc(Cl)cc6F)n5)CC3)n4C[C@@H]3CCO3)cc12 [Compound 255] | 0.32 nM
10 | COC(=O)[C@@H]1C[C@H](O)CN1C(=O)CNC(=O)c1ccc2c(c1)nc(CN1CCC(c3cccc(OCc4ccc(C#N)cc4F)n3)CC1)n2C[C@@H]1CCO1 [Compound 47] | 9.6 nM
11 | COCCn1c(Cc2ccc(-c3cccc(OCc4ccc(C#N)cc4F)n3)cc2)nc2cc(C(=O)NCCc3ccc(N)cc3)ccc21 [Compound 9] | 2980 nM
12 | O=C(Nc1ccc2c(c1)nc(CN1CC=C(c3cccc(OCc4ccc(Cl)cc4F)n3)CC1)n2C[C@@H]1CCO1)c1ccc2[nH]nc(C(F)F)c2c1 [Compound 219] | 1.21 nM
13 | Cc1n[nH]c2ccc(C(=O)Nc3ccc4nc(CN5CC=C(c6cccc(OCc7ccc(Cl)cc7F)n6)CC5)n(CC5CCO5)c4c3)cc12 (centres unmarked) [Compound 278] | 3.18 nM
14 | C[C@]12C[C@@H](C(=O)O)N(C(=O)CNC(=O)c3ccc4c(c3)nc(CN3CCC(c5cccc(OCc6ccc(Cl)cc6F)n5)CC3)n4C[C@@H]3CCO3)[C@@]1(C)C2 [Compound 55] | 1.83 nM
15 | N#Cc1ccc(COc2cccc(C3=CCN(Cc4nc5cc(C(=O)Nc6cc(F)c7[nH]ncc7c6)ccc5n4C[C@@H]4CCO4)CC3)n2)c(F)c1 [Compound 180] | 1.06 nM
16 | Nc1ncc2c(ncn2C(=O)c2ccc3c(c2)nc(CN2CCC(c4cccc(OCc5ccc(Cl)cc5F)n4)CC2)n3C[C@@H]2CCO2)n1 [Compound 78] | 23.1 nM
17 | COCCn1c(CN2CCC(c3cccc(OCc4ccc(Cl)cc4F)n3)CC2)nc2cc(C(=O)NCc3ccc4[nH]ccc4c3)ccc21 [Compound 21] | 160 nM
18 | COCCn1c(CN2CCC(c3cccc(OCc4ccc(Cl)cc4F)n3)CC2)nc2cc(C(=O)NCCCn3ccnc3)ccc21 [Compound 16] | 146 nM
19 | Cc1n[nH]c2c(F)cc(C(=O)Nc3ccc4c(c3)nc(CN3CC=C(c5cccc(OCc6cc(F)c(C#N)s6)n5)CC3)n4C[C@@H]3CCO3)cc12 [Compound 362] | 0.85 nM
20 | Cc1nn(C)c2ccc(NC(=O)c3ccc4c(c3)nc(CN3CC=C(c5cccc(OCc6ccc(Cl)cc6F)n5)CC3)n4C[C@@H]3CCO3)cc12 [Compound 159] | 9.74 nM
21 | Cc1n[nH]c2c(F)cc(C(=O)Nc3ccc4nc(CN5CC=C(c6cccc(OCc7ccc(C#N)cc7F)n6)CC5)n(CC5CCO5)c4c3)cc12 (centres unmarked) [Compound 289] | 0.99 nM
22 | N#Cc1ccc(COc2cccc(C3=CCN(Cc4nc5cc(NC(=O)c6cc(F)c7c(c6)C6(CC6)C(=O)N7)ccc5n4C[C@@H]4CCO4)CC3)n2)c(F)c1 [Compound 226] | 0.12 nM
23 | Cc1n[nH]c2ccc(NC(=O)c3ccc4c(c3)nc(CN3CC=C(c5cccc(OCc6ccc(C#N)cc6F)n5)CC3)n4C[C@@H]3CCO3)cc12 [Compound 187] | 0.2 nM
24 | Cc1cc2c(Cl)ccc(COc3cccc(C4=CCN(Cc5nc6cc(C(=O)Nc7cc(C)c8[nH]nc(C(F)F)c8c7)ccc6n5C[C@@H]5CCO5)CC4)n3)c2o1 [Compound 349] | 1.61 nM
25 | Cc1n[nH]c2ccc(C(=O)Nc3ccc4c(c3)nc(C3CC35CCN(c3cccc(OCc6ccc(Cl)cc6F)n3)CC5)n4CC3CCO3)cc12 (centres unmarked) [Compound 246] | 0.91 nM
26 | Cc1cc2c(C#N)ccc(COc3cccc(C4=CCN(Cc5nc6cc(NC(=O)c7ccc8[nH]nc(C)c8c7)ccc6n5C[C@@H]5CCO5)CC4)n3)c2o1 [Compound 358] | 0.98 nM
27 | Cc1n[nH]c2c(F)cc(NC(=O)c3cc4c(nc(CN5CC=C(c6cccc(OCc7ccc(Cl)cn7)n6)CC5)n4C[C@@H]4CCO4)s3)cc12 [Compound 406] | 99.2 nM
28 | CNS(=O)(=O)Cc1ccc2[nH]cc(CCNC(=O)c3ccc4c(c3)nc(CN3CCC(c5cccc(OCc6ccc(Cl)cc6F)n5)CC3)n4CCOC)c2c1 [Compound 39] | 286 nM
29 | O=C(Nc1ncc2[nH]cnc2n1)c1ccc2c(c1)nc(CN1CC=C(c3cccc(OCc4ccc(Cl)cc4F)n3)CC1)n2C[C@@H]1CCO1 [Compound 144] | 23.4 nM

The remaining lines, values ahead:

Row | EC50 | SMILES
30 | 1.23 nM | Cc1cc(NC(=O)c2ccc3c(c2)nc(CN2CC=C(c4cccc(OCc5ccc(Cl)cc5F)n4)CC2)n3C[C@@H]2CCO2)c(F)c2c(C)n[nH]c12 [Compound 175]
31 | 3.21 nM | Cc1n[nH]c2c(C(F)(F)F)cc(NC(=O)c3ccc4nc(CN5CC=C(c6cccc(OCc7ccc(Cl)cc7F)n6)CC5)n(CC5CCO5)c4c3)cc12 (centres unmarked) [Compound 272]
32 | 1.32 nM | Cc1cc(NC(=O)c2ccc3c(c2)nc(CN2CC=C(c4cccc(OCc5cc(F)c(C#N)s5)n4)CC2)n3C[C@@H]2CCO2)cc2c(C(F)(F)F)n[nH]c12 [Compound 365]
33 | 4.22 nM | Cc1n[nH]c2c(C)cc(NC(=O)c3ccc4nc(CN5CC=C(c6cccc(OCc7ccc(Cl)cc7F)n6)CC5)n(CC5CCO5)c4c3)cc12 (centres unmarked) [Compound 264]
34 | 0.99 nM | Cc1n[nH]c2c(Cl)cc(NC(=O)c3ccc4c(c3)nc(CN3CC=C(c5cccc6c5OC(C)(c5ccc(Cl)cc5F)O6)CC3)n4CC3CCO3)cc12 (centres unmarked) [Compound 293]
35 | 3.76 nM | CC(C)c1n[nH]c2ccc(NC(=O)c3ccc4c(c3)nc(CN3CCC(c5cccc(OCc6ccc(Cl)cc6F)n5)CC3)n4C[C@@H]3CCO3)cc12 [Compound 83]
36 | 15.3 nM | Cc1cc(NC(=O)c2ccc3c(c2)nc(CN2CCC(c4cccc(OCc5ccc(Cl)cc5F)n4)CC2)n3C[C@@H]2CCO2)c(C)c2c(C)n[nH]c12 [Compound 120]
37 | 9.53 nM | Cc1n[nH]c2c(C3CC3)cc(NC(=O)c3ccc4c(c3)nc(CN3CC=C(c5cccc(OCc6ccc(Cl)cc6F)n5)CC3)n4C[C@@H]3CCO3)cc12 [Compound 171]
38 | 10.1 nM | O=C(Nc1ccc2[nH]ncc2c1)c1ccc2c(c1)nc(CN1CCC(c3cccc(OCc4ccc(Cl)cc4F)n3)CC1)n2C[C@@H]1CCO1 [Compound 87]
39 | 0.38 nM | Cc1n[nH]c2c(C)cc(NC(=O)c3ccc4c(c3)nc(CN3CC=C(c5cccc(OCc6cc(F)c(C#N)s6)n5)CC3)n4C[C@@H]3CCO3)cc12 [Compound 364]
40 | 17.9 nM | O=C(Nc1ccc2[nH]c(=O)cnc2c1)c1ccc2c(c1)nc(CN1CCC(c3cccc(OCc4ccc(Cl)cc4F)n3)CC1)n2C[C@@H]1CCO1 [Compound 84]
41 | 0.16 nM | Cc1n[nH]c2c(C)cc(NC(=O)c3ccc4c(c3)nc(CN3CC=C(c5cccc6c5OC(C)(c5ccc(C#N)cc5F)O6)CC3)n4CC3CCO3)cc12 (centres unmarked) [Compound 299]
42 | 0.33 nM | Cc1cc(NC(=O)c2ccc3c(c2)nc(CN2CCC(c4cccc(OCc5ccc(Cl)cc5F)n4)CC2)n3C[C@@H]2CCO2)cc2nn[nH]c12 [Compound 194]
43 | 1.58 nM | Cc1cc(NC(=O)c2ccc3c(c2)nc(CN2CCC(c4cccc5c4OC(C)(c4ccc(Cl)cc4F)O5)CC2)n3CC2CCO2)cc2c(C(F)(F)F)n[nH]c12 (centres unmarked) [Compound 332]
44 | 0.74 nM | Cc1cc(NC(=O)c2ccc3c(c2)nc(CN2CCC(c4cccc(OCc5ccc(C#N)cc5F)n4)CC2)n3C[C@@H]2CCO2)cc2c(C(F)F)n[nH]c12 [Compound 132]
45 | 5.49 nM | Cc1n[nH]c2cc(F)c(NC(=O)c3ccc4c(c3)nc(CN3CCC(c5cccc(OCc6ccc(Cl)cc6F)n5)CC3)n4C[C@@H]3CCO3)cc12 [Compound 123]
46 | 1.07 nM | Cc1n[nH]c2c(Cl)cc(NC(=O)c3ccc4c(c3)nc(CN3CC=C(c5cccc6c5OC(C)(c5ccc(Cl)cc5F)O6)C[C@@H]3C)n4CC3CCO3)cc12 (some centres unmarked) [Compound 302]
47 | 1.27 nM | Cc1n[nH]c2c(C(F)(F)F)cc(NC(=O)c3ccc4c(c3)nc(CN3CCC(c5cccc6c5OC(C)(c5ccc(Cl)cc5F)O6)CC3)n4CC3CCO3)cc12 (centres unmarked) [Compound 331]
48 | 76.5 nM | Cc1n[nH]c2ncc(NC(=O)c3ccc4c(c3)nc(CN3CCC(c5cccc(OCc6ccc(Cl)cc6F)n5)CC3)n4C[C@@H]3CCO3)cc12 [Compound 79]
49 | 3.55 nM | CCc1cc(NC(=O)c2ccc3c(c2)nc(CN2CC=C(c4cccc(OCc5ccc(Cl)cc5F)n4)CC2)n3C[C@@H]2CCO2)cc2c(C)n[nH]c12 [Compound 170]
50 | 1.33 nM | O=C(Nc1cc(F)c2[nH]ncc2c1)c1ccc2c(c1)nc(CN1CCC(c3cccc(OCc4ccc(Cl)cc4F)n3)CC1)n2C[C@@H]1CCO1 [Compound 102]
51 | 0.76 nM | Cc1cc(NC(=O)c2ccc3c(c2)nc(CN2CC=C(c4cccc(OCc5ccc(C#N)cc5F)n4)CC2)n3C[C@@H]2CCO2)cc2c(C(F)F)n[nH]c12 [Compound 183]
52 | 1.83 nM | O=C(Nc1cc(C(F)(F)F)c2c(c1)C1(CC1)C(=O)N2)c1ccc2c(c1)nc(CN1CCC(c3cccc(OCc4ccc(Cl)cc4F)n3)CC1)n2C[C@@H]1CCO1 [Compound 107]
53 | 13.7 nM | Cc1n[nH]c2c(Cl)cc(C(=O)Nc3ccc4c(c3)nc(Cc3cc(F)c(-c5cccc6c5OC(C)(c5ccc(Cl)cc5F)O6)cc3F)n4CC3CCO3)cc12 (centres unmarked) [Compound 320]
